Measured values from patent US20080009418A1, “Selective Inhibitors” (Alchemia LTD., priority 2004, published 2008).

Key:
Human δ-opioid (DOP) = molecular target: T1, Human δ-opioid (DOP) (Homo sapiens, UniProt P41143); assay: Radioligand binding, human δ-opioid (DOP) membranes, FlashPlate, [3H]-Bremazocine; conditions: compound at 10 μM; for A1: inhibition of radioligand binding: [3H]-Bremazocine
T1 construct: purchased Perkin Elmer Biosignal
In short: (§1)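 Cloned human receptor membranes were coated onto FlashPlate wells and incubated with radioligand and compound (added from a 0.5 mM DMSO daughter plate) for 1 hour at room temperature in the dark. Scintillation counting gave percent inhibition, with DMSO defining total and reference ligand defining non-specific binding.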

Human κ-Opioid (KOP) = molecular target: T2, Human κ-Opioid (KOP) (Homo sapiens, UniProt P41145); assay: Radioligand binding, human κ-opioid (KOP) membranes, filtration, [3H]-Diprenorphine; conditions: compound at 10 μM; for A2: inhibition of radioligand binding: [3H]-Diprenorphine
T2 construct: purchased Perkin Elmer Biosignal
T2 sequence (P41145 whole entry): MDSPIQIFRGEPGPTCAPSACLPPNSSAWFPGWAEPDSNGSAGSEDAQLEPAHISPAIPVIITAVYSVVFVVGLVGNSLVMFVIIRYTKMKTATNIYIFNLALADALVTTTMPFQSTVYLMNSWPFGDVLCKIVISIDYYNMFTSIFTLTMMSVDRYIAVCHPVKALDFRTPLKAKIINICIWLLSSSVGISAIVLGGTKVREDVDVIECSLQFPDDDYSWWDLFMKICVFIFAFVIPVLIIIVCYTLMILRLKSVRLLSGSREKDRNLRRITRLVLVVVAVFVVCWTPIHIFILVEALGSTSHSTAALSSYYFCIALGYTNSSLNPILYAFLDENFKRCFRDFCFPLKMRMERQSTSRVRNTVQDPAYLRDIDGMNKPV
In short: (§2)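 Filtration binding on cloned human receptor membranes (1 Unit/well), [125I]-Substance P for NK1 and [3H]-Diprenorphine for KOP, 1 h at room temperature. Filters PEI-presoaked, washed with cold 50 mM Tris-HCl pH 7.4, counted by scintillation; percent inhibition calculated, reference ligand defining non-specific binding.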

Human Melanocortin (MC3) = molecular target: T3, Human Melanocortin (MC3) (Homo sapiens, UniProt P41968); assay: Radioligand binding, human melanocortin MC3 membranes, FlashPlate, [125I]-NDP-αMSH; conditions: compound at 10 μM; for A3: inhibition of radioligand binding: [125I]-NDP-αMSH
T3 construct: purchased Perkin Elmer Biosignal
T3 sequence (P41968 whole entry): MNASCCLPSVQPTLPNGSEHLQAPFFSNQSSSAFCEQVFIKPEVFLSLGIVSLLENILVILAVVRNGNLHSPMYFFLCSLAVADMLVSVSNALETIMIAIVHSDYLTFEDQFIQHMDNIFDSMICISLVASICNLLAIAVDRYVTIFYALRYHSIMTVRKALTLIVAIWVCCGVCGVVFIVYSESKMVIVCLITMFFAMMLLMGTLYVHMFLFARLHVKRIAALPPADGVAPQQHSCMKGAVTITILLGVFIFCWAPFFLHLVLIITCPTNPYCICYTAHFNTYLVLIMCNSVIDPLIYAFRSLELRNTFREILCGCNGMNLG
In short: as §1

Human Melanocortin (MC4) = molecular target: T4, Human Melanocortin (MC4) (Homo sapiens, UniProt P32245); assay: Radioligand binding, human melanocortin MC4 membranes, FlashPlate, [125I]-NDP-αMSH; conditions: compound at 10 μM; for A4: inhibition of radioligand binding: [125I]-NDP-αMSH
T4 construct: purchased Perkin Elmer Biosignal
T4 sequence (P32245 whole entry): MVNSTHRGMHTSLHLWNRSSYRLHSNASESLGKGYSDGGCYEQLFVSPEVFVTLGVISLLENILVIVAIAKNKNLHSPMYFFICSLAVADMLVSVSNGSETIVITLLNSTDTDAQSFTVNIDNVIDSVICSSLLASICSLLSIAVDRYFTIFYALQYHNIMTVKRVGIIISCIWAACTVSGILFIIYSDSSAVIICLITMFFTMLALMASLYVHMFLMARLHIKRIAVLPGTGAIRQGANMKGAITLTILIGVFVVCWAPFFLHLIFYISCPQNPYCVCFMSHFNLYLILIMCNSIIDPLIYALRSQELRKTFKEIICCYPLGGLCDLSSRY
In short: as §1

Human melanocortin (MC5) = molecular target: T5, Human melanocortin (MC5) (Homo sapiens, UniProt P33032); assay: Radioligand binding, human melanocortin MC5 membranes, FlashPlate, [125I]-NDP-αMSH; conditions: compound at 10 μM; for A5: inhibition of radioligand binding: [125I]-NDP-αMSH
T5 construct: purchased Perkin Elmer Biosignal
T5 sequence (P33032 whole entry): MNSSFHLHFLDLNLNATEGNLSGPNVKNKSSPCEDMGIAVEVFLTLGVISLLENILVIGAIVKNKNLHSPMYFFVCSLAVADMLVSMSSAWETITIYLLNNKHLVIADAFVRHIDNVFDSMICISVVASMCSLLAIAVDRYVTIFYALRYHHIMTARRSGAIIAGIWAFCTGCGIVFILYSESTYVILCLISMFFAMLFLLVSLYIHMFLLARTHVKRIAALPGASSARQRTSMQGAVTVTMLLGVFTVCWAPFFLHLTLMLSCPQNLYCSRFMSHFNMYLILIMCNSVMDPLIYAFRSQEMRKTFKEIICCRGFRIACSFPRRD
In short: as §1

[1] = molecular target: T6, Human melanin-concentrating hormone (MCH1) (Homo sapiens, UniProt Q99705); assay: Radioligand binding, human melanin-concentrating hormone MCH1 membranes, FlashPlate, [125I]-S36057; conditions: compound at 10 μM
T6 construct: purchased Perkin Elmer Biosignal
T6 sequence (Q99705 whole entry): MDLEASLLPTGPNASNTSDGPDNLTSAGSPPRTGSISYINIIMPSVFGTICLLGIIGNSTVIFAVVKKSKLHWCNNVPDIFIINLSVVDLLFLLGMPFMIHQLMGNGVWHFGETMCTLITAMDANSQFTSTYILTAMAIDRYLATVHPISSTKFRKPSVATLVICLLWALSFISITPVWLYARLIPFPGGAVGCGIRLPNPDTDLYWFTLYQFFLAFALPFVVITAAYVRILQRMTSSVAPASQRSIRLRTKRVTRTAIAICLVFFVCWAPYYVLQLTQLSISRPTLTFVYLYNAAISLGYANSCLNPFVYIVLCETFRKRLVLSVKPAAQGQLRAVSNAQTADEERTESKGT
In short: as §1

Human μ-opioid (MOP) = molecular target: T7, Human μ-opioid (MOP) (Homo sapiens, UniProt P35372); assay: Radioligand binding, human μ-opioid (MOP) membranes, FlashPlate, [3H]-Naloxone; conditions: compound at 10 μM; for A7: inhibition of radioligand binding: [3H]-Naloxone
T7 construct: purchased Perkin Elmer Biosignal
T7 sequence (P35372 whole entry): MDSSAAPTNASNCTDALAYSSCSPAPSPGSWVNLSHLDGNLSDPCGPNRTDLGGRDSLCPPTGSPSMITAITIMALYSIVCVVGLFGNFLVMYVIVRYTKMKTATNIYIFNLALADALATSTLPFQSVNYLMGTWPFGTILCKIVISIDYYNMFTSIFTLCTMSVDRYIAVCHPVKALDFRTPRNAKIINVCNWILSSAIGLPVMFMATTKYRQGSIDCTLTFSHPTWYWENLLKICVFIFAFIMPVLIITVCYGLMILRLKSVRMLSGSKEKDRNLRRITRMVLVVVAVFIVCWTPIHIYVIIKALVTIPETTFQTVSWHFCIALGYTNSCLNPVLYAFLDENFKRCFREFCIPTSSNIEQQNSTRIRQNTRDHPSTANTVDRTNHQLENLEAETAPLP
In short: as §1

Human neurokinin (NK1) = molecular target: T8, Human neurokinin (NK1) (Homo sapiens, UniProt P25103); assay: Radioligand binding, human neurokinin NK1 membranes, filtration, [125I]-Substance P; conditions: compound at 10 μM; for A8: inhibition of radioligand binding: [125I]-Substance P
T8 construct: purchased Perkin Elmer Biosignal
T8 sequence (P25103 whole entry): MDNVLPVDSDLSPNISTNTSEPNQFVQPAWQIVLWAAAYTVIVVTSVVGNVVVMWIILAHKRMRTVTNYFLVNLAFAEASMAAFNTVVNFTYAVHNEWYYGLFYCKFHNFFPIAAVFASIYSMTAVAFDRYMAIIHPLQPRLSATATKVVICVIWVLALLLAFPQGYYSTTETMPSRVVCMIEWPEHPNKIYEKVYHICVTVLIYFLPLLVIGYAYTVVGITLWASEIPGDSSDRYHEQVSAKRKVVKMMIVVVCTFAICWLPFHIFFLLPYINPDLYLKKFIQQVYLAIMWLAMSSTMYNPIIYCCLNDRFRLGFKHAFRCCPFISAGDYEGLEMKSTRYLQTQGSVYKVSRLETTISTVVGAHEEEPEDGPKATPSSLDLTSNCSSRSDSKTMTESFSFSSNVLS
In short: as §2

[2] = molecular target: T9, Human neuropeptide Y (NPY-Y1) (Homo sapiens, UniProt P25929); assay: Radioligand binding, human neuropeptide Y NPY-Y1 membranes, FlashPlate, [125I]-PYY; conditions: compound at 10 μM; for A9: inhibition of radioligand binding: [125I]-PYY
T9 construct: purchased Perkin Elmer Biosignal
T9 sequence (P25929 1-384): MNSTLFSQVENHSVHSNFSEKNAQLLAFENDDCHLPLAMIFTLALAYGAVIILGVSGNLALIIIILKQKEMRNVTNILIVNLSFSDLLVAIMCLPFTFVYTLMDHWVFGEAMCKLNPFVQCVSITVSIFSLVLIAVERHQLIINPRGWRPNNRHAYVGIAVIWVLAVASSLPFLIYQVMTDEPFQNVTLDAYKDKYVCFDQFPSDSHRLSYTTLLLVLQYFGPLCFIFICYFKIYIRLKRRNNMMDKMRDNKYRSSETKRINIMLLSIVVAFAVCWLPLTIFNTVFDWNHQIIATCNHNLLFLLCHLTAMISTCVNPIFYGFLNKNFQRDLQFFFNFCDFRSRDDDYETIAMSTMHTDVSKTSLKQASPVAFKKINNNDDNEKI
In short: as §1

Human opioid (ORL1) = molecular target: T10, Human opioid (ORL1) (Homo sapiens, UniProt P41146); assay: Radioligand binding, human opioid ORL1 membranes, FlashPlate, [125I]-Nociceptin; conditions: compound at 10 μM; for A10: inhibition of radioligand binding: [125I]-Nociceptin
T10 construct: purchased Perkin Elmer Biosignal
T10 sequence (P41146 whole entry): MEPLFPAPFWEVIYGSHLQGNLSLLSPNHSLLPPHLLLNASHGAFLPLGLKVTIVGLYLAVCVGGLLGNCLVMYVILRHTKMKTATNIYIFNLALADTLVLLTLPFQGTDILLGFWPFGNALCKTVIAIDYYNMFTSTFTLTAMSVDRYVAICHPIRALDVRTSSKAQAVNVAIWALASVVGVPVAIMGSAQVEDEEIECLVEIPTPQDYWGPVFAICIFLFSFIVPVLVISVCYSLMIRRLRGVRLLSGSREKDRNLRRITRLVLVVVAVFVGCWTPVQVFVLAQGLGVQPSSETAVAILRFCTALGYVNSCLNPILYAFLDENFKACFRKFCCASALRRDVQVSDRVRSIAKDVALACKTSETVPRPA
In short: as §1

Mouse urotensin (mUR2) = molecular target: T11, Mouse urotensin (mUR2) (Mus musculus, UniProt Q8VIH9); assay: Radioligand binding, mouse urotensin mUR2 membranes, FlashPlate, [125I]-Urotensin II; conditions: compound at 10 μM; for A11: inhibition of radioligand binding: [125I]-Urotensin II
T11 construct: purchased Perkin Elmer Biosignal
T11 sequence (Q8VIH9 1-385): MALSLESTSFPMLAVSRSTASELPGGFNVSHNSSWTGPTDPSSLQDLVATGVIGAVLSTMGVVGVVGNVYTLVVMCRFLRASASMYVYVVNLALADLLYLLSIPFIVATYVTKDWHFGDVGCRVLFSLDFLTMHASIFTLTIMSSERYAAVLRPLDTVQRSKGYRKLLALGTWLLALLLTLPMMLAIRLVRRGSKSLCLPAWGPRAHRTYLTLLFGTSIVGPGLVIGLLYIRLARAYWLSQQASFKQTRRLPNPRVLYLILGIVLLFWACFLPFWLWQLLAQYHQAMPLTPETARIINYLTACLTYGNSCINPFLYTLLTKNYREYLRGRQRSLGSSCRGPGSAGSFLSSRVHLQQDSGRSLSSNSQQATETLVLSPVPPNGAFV
In short: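 Cloned mouse urotensin (mUR2) receptor membranes from Perkin Elmer Biosignal were immobilized in FlashPlate microplates using a proprietary coating. Each well got 19.5 μl buffer, then 0.5 μl of DMSO, reference ligand, or compound. Adding 5 μl of [125I]-Urotensin II, diluted to 5× final concentration in binding buffer, started binding. Plates were sealed with TopSeal-A and incubated 1 hour at room temperature in the dark. Wells were counted for 30 seconds each on a TopCount after a 60-second delay, and percentage inhibition was calculated.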

[3] = [125I]-S36057, human MCH1 membranes

T1 sequence (P41143 whole entry): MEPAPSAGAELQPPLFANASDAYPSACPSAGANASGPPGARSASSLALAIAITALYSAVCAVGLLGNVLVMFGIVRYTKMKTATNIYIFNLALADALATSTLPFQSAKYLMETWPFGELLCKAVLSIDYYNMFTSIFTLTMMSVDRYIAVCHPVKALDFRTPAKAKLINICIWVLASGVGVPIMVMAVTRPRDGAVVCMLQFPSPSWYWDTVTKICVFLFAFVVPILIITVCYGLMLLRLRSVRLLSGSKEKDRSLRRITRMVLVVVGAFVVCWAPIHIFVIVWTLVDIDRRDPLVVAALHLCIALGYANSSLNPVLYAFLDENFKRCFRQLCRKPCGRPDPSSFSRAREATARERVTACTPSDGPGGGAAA

COCC1OC(OCc2ccccc2)C(NC(=O)CCN)C(OCc2ccc3ccccc3c2)C1O (stereo not shown) [compound 190]
A1: inhibition of radioligand binding (Human δ-opioid (DOP); FlashPlate): − (“−” indicates less than 50% inhibition at 10 μM) | A2: inhibition of radioligand binding (Human κ-Opioid (KOP); filtration): − (“−” indicates less than 50% inhibition at 10 μM) | A3: inhibition of radioligand binding (Human Melanocortin (MC3); FlashPlate): − (“−” indicates less than 50% inhibition at 10 μM) | A4: inhibition of radioligand binding (Human Melanocortin (MC4); FlashPlate): − (“−” indicates less than 50% inhibition at 10 μM) | A5: inhibition of radioligand binding (Human melanocortin (MC5); FlashPlate): + (“+” indicates greater than 50% inhibition at 10 μM) | A6: inhibition of radioligand binding ([1]; [125I]-S36057, FlashPlate): − (“−” indicates less than 50% inhibition at 10 μM) | A7: inhibition of radioligand binding (Human μ-opioid (MOP); FlashPlate): − (“−” indicates less than 50% inhibition at 10 μM) | A8: inhibition of radioligand binding (Human neurokinin (NK1); filtration): + (“+” indicates greater than 50% inhibition at 10 μM) | A9: inhibition of radioligand binding ([2]; FlashPlate): − (“−” indicates less than 50% inhibition at 10 μM) | A10: inhibition of radioligand binding (Human opioid (ORL1); FlashPlate): − (“−” indicates less than 50% inhibition at 10 μM) | A11: inhibition of radioligand binding (Mouse urotensin (mUR2); FlashPlate): − (“−” indicates less than 50% inhibition at 10 μM)

CO[C@H]1[C@H](O)[C@@H](COCc2ccccc2)OC(OCc2ccc(-c3ccccc3)cc2)[C@@H]1NC(=O)CCCNC(=N)N (stereo partly shown) [compound 61]
A1 radioligand binding inhibition (Human δ-opioid (DOP); human δ-opioid (DOP) membranes): − (“−” indicates less than 50% inhibition at 10 μM) | A2 radioligand binding inhibition (Human κ-Opioid (KOP); human κ-opioid (KOP) membranes): + (“+” indicates greater than 50% inhibition at 10 μM) | A3 radioligand binding inhibition (Human Melanocortin (MC3); human melanocortin MC3 membranes): − (“−” indicates less than 50% inhibition at 10 μM) | A4 radioligand binding inhibition (Human Melanocortin (MC4); human melanocortin MC4 membranes): − (“−” indicates less than 50% inhibition at 10 μM) | A5 radioligand binding inhibition (Human melanocortin (MC5); human melanocortin MC5 membranes): + (“+” indicates greater than 50% inhibition at 10 μM) | A6 radioligand binding inhibition ([1]; human MCH1 membranes): − (“−” indicates less than 50% inhibition at 10 μM) | A7 radioligand binding inhibition (Human μ-opioid (MOP); human μ-opioid (MOP) membranes): + (“+” indicates greater than 50% inhibition at 10 μM) | A8 radioligand binding inhibition (Human neurokinin (NK1); human neurokinin NK1 membranes): + (“+” indicates greater than 50% inhibition at 10 μM) | A9 radioligand binding inhibition ([2]; human NPY-Y1 membranes): − (“−” indicates less than 50% inhibition at 10 μM) | A10 radioligand binding inhibition (Human opioid (ORL1); human ORL1 membranes): − (“−” indicates less than 50% inhibition at 10 μM) | A11 radioligand binding inhibition (Mouse urotensin (mUR2); mouse urotensin mUR2 membranes): − (“−” indicates less than 50% inhibition at 10 μM)

N=C(N)NCC(=O)NC1C(OCc2ccc(-c3ccccc3)cc2)OC(COCc2ccc3ccccc3c2)C(O)C1OCc1ccc(Cl)cc1 (stereo not shown) [compound 399]
A1: inhibition of radioligand binding (Human δ-opioid (DOP); human DOP membranes): − (“−” indicates less than 50% inhibition at 10 μM) | A2: inhibition of radioligand binding (Human κ-Opioid (KOP); human KOP membranes): − (“−” indicates less than 50% inhibition at 10 μM) | A3: inhibition of radioligand binding (Human Melanocortin (MC3); human MC3 membranes): + (“+” indicates greater than 50% inhibition at 10 μM) | A4: inhibition of radioligand binding (Human Melanocortin (MC4); human MC4 membranes): + (“+” indicates greater than 50% inhibition at 10 μM) | A5: inhibition of radioligand binding (Human melanocortin (MC5); human MC5 membranes): + (“+” indicates greater than 50% inhibition at 10 μM) | A6: inhibition of radioligand binding [1, 3]: − (“−” indicates less than 50% inhibition at 10 μM) | A7: inhibition of radioligand binding (Human μ-opioid (MOP); human MOP membranes): − (“−” indicates less than 50% inhibition at 10 μM) | A8: inhibition of radioligand binding (Human neurokinin (NK1); human NK1 membranes): + (“+” indicates greater than 50% inhibition at 10 μM) | A9: inhibition of radioligand binding ([2]; human NPY-Y1 membranes): − (“−” indicates less than 50% inhibition at 10 μM) | A10: inhibition of radioligand binding (Human opioid (ORL1); human ORL1 membranes): − (“−” indicates less than 50% inhibition at 10 μM) | A11: inhibition of radioligand binding (Mouse urotensin (mUR2); mouse mUR2 membranes): − (“−” indicates less than 50% inhibition at 10 μM)

NCCCC(=O)NC1C(OCc2ccc3ccccc3c2)OC(COCc2ccccc2)C(O)C1OCc1ccccc1 (single isomer, unassigned) [compound 467]
A1: inhibition of radioligand binding (Human δ-opioid (DOP); human DOP membranes): − (“−” indicates less than 50% inhibition at 10 μM) | A2: inhibition of radioligand binding (Human κ-Opioid (KOP); human KOP membranes): − (“−” indicates less than 50% inhibition at 10 μM) | A3: inhibition of radioligand binding (Human Melanocortin (MC3); human MC3 membranes): − (“−” indicates less than 50% inhibition at 10 μM) | A4: inhibition of radioligand binding (Human Melanocortin (MC4); human MC4 membranes, 10 µM): − (“−” indicates less than 50% inhibition at 10 μM) | A5: inhibition of radioligand binding (Human melanocortin (MC5); human MC5 membranes): − (“−” indicates less than 50% inhibition at 10 μM) | A6: inhibition of radioligand binding [1, 3]: − (“−” indicates less than 50% inhibition at 10 μM) | A7: inhibition of radioligand binding (Human μ-opioid (MOP); human MOP membranes, 10 µM): − (“−” indicates less than 50% inhibition at 10 μM) | A8: inhibition of radioligand binding (Human neurokinin (NK1); human NK1 membranes): + (“+” indicates greater than 50% inhibition at 10 μM) | A9: inhibition of radioligand binding ([2]; human NPY-Y1 membranes): − (“−” indicates less than 50% inhibition at 10 μM) | A10: inhibition of radioligand binding (Human opioid (ORL1); human ORL1 membranes, 10 µM): − (“−” indicates less than 50% inhibition at 10 μM) | A11: inhibition of radioligand binding (Mouse urotensin (mUR2); mouse mUR2 membranes): − (“−” indicates less than 50% inhibition at 10 μM)

N=C(N)NCC(=O)NC1C(OCc2ccc(Cl)cc2)OC(COCc2ccc3ccccc3c2)C(O)C1OCc1ccc(-c2ccccc2)cc1 (stereo not shown) [compound 423]
A1: inhibition of radioligand binding (Human δ-opioid (DOP); human DOP membranes): − (“−” indicates less than 50% inhibition at 10 μM) | A2: inhibition of radioligand binding (Human κ-Opioid (KOP); human KOP membranes): − (“−” indicates less than 50% inhibition at 10 μM) | A3: inhibition of radioligand binding (Human Melanocortin (MC3); human MC3 membranes): + (“+” indicates greater than 50% inhibition at 10 μM) | A4: inhibition of radioligand binding (Human Melanocortin (MC4); human MC4 membranes): + (“+” indicates greater than 50% inhibition at 10 μM) | A5: inhibition of radioligand binding (Human melanocortin (MC5); human MC5 membranes): + (“+” indicates greater than 50% inhibition at 10 μM) | A6: inhibition of radioligand binding [1, 3]: − (“−” indicates less than 50% inhibition at 10 μM) | A7: inhibition of radioligand binding (Human μ-opioid (MOP); human MOP membranes): − (“−” indicates less than 50% inhibition at 10 μM) | A8: inhibition of radioligand binding (Human neurokinin (NK1); human NK1 membranes): + (“+” indicates greater than 50% inhibition at 10 μM) | A9: inhibition of radioligand binding ([2]; human NPY-Y1 membranes): − (“−” indicates less than 50% inhibition at 10 μM) | A10: inhibition of radioligand binding (Human opioid (ORL1); human ORL1 membranes): + (“+” indicates greater than 50% inhibition at 10 μM) | A11: inhibition of radioligand binding (Mouse urotensin (mUR2); mouse mUR2 membranes): − (“−” indicates less than 50% inhibition at 10 μM)
